# Measurements from the supplement of paper PMC10307832.
# Key:
# Experiment in all cases: relative viability (nuclei count vs DMSO), 5 days (fraction); higher = more cells survive
# [1] = compound: C1=CC2=C(C=CC(=C2)C=C3C(=O)NC(=NCC4=CC=CS4)S3)N=C1 [RO-3306] + CCNC(=O)c1noc(-c2cc(C(C)C)c(O)cc2O)c1-c1ccc(CN2CCOCC2)cc1 [Luminespib] (partner 0.01 µM)
# Outline: (§1)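 Lung cancer cell lines were seeded in 1536-well plates and dosed by pin tool the next day, with either a single drug or a fixed anchor-drug dose combined with five library-drug doses (not always all listed) spaced in √10 steps. Five days later, one step fixed the cells and stained their nuclei (final 0.05% Triton X-100, 1% formaldehyde, 1 ug/ml Hoechst), and nuclei were counted on 4× images. Relative viability is the nuclei count in treated wells divided by the count in vehicle wells, and each value is the median of duplicate plates.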
# [2] = compound: C1=CC2=C(C=CC(=C2)C=C3C(=O)NC(=NCC4=CC=CS4)S3)N=C1 [RO-3306] + CS(=O)(=O)CCNCc1ccc(-c2ccc3ncnc(Nc4ccc(OCc5cccc(F)c5)c(Cl)c4)c3c2)o1 [Lapatinib] (partner 2 µM)
# Outline: as §1
# [3] = compound: C1=CC2=C(C=CC(=C2)C=C3C(=O)NC(=NCC4=CC=CS4)S3)N=C1 [RO-3306] + NC(=O)Nc1cc(-c2cccc(F)c2)sc1C(=O)N[C@H]1CCCNC1 [AZD7762] (partner 0.2 µM)
# Outline: as §1
# [4] = compound: C1=CC2=C(C=CC(=C2)C=C3C(=O)NC(=NCC4=CC=CS4)S3)N=C1 [RO-3306] + O=C(CCCCCCC(=O)Nc1ccccc1)NO [Vorinostat] (partner 1 µM)
# Outline: as §1
Cell Line,relative viability ([1]; first compound 0.01 µM),relative viability ([1]; first compound 0.03162 µM),relative viability ([1]; first compound 0.1 µM),relative viability ([1]; first compound 0.3162 µM),relative viability ([1]; first compound 1 µM),relative viability ([2]; first compound 0.01 µM),relative viability ([2]; first compound 0.03162 µM),relative viability ([2]; first compound 0.1 µM),relative viability ([2]; first compound 0.3162 µM),relative viability ([2]; first compound 1 µM),relative viability ([3]; first compound 0.01 µM),relative viability ([3]; first compound 0.03162 µM),relative viability ([3]; first compound 0.1 µM),relative viability ([3]; first compound 0.3162 µM),relative viability ([3]; first compound 1 µM),relative viability ([4]; first compound 0.01 µM),relative viability ([4]; first compound 0.03162 µM),relative viability ([4]; first compound 0.1 µM),relative viability ([4]; first compound 0.3162 µM),relative viability ([4]; first compound 1 µM)
NCI-H3122,0.113,0.108,0.0505,0.101,0.122,1.1,1,1.02,0.997,0.827,1.16,1.06,0.973,1.06,1.1,1.07,0.825,0.993,1.19,1.06
PC-3 [JPC-3],0.642,0.638,0.778,0.667,0.864,0.469,0.445,0.389,0.439,0.435,0.688,0.673,0.769,0.687,0.681,0.649,0.629,0.648,0.735,0.524
PC-14,0.251,0.147,0.161,0.139,0.15,0.326,0.395,0.312,0.317,0.295,0.28,0.32,0.285,0.426,0.251,1.03,0.682,0.72,0.796,0.682
RERF-LC-KJ,1.15,1.41,1.17,1.45,0.99,0.861,0.842,0.828,0.864,0.702,1.02,0.671,1.06,1.11,1.24,0.725,0.64,0.67,0.687,0.63
